In ChEMBL document CHEMBL1201862, “PubChem BioAssay data set” (2004):
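Exposure lasted 48 hours, with cells grown in 96-well plates and compounds tested at five concentrations. The concentration for 50% growth inhibition is given as GI50.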 Calls of active or inactive are those of the source. Rule as the data show it: active = GI50 up to about 1.1 µM and inactive = higher.

How the values were obtained:
Assay in all cases: NCI-60 cell line screen, 48 h
HL-60 = tested on: HL-60
SF-295 = tested on: SF-295
M19-MEL = tested on: M19-MEL
HOP-18 = tested on: HOP-18
CAKI-1 = tested on: CAKI-1
K562 = tested on: K562
EKVX = tested on: EKVX
UACC-257 = tested on: UACC-257
HCT-116 = tested on: HCT-116
RXF 631 = tested on: RXF 631
SK-MEL-5 = tested on: SK-MEL-5
LXFL 529 = tested on: LXFL 529
HOP-92 = tested on: HOP-92
U-251 = tested on: U-251
Malme-3M = tested on: Malme-3M
SW-620 = tested on: SW-620
786-0 = tested on: 786-0
SK-OV-3 = tested on: SK-OV-3
NCI-H522 = tested on: NCI-H522
M14 = tested on: M14
DMS-114 = tested on: DMS-114
SNB-78 = tested on: SNB-78
SNB-19 = tested on: SNB-19
NCI-H226 = tested on: NCI-H226
KM12 = tested on: KM12
NCI-H460 = tested on: NCI-H460
UACC-62 = tested on: UACC-62
XF498 = tested on: XF498
OVCAR-4 = tested on: OVCAR-4
OVCAR-5 = tested on: OVCAR-5
HCC 2998 = tested on: HCC 2998
COLO 205 = tested on: COLO 205
UO-31 = tested on: UO-31
HT-29 = tested on: HT-29
SK-MEL-28 = tested on: SK-MEL-28
DLD-1 = tested on: DLD-1
ACHN = tested on: ACHN
CCRF-CEM = tested on: CCRF-CEM
IGROV-1 = tested on: IGROV-1
A498 = tested on: A498
KM-20L2 = tested on: KM-20L2
SF-268 = tested on: SF-268
RPMI-8226 = tested on: RPMI-8226
SN12C = tested on: SN12C
HCT-15 = tested on: HCT-15
HOP-62 = tested on: HOP-62
DMS-273 = tested on: DMS-273
NCI-H23 = tested on: NCI-H23
LOX IMVI = tested on: LOX IMVI
OVCAR-8 = tested on: OVCAR-8
SR = tested on: SR
SF-539 = tested on: SF-539
MOLT-4 = tested on: MOLT-4
OVCAR-3 = tested on: OVCAR-3
SK-MEL-2 = tested on: SK-MEL-2
A549 = tested on: A549
TK-10 = tested on: TK-10
SNB-75 = tested on: SNB-75

NC(=O)COC(=O)c1c(Cl)nc2sccn12
GI50 (HL-60): > 46 µM (inactive) | GI50 (SF-295): > 100 µM (inactive) | GI50 (M19-MEL): > 84.3 µM (inactive) | GI50 (HOP-18): > 100 µM (inactive) | GI50 (CAKI-1): > 100 µM (inactive) | GI50 (K562): > 63.2 µM (inactive) | GI50 (EKVX): > 100 µM (inactive) | GI50 (UACC-257): > 100 µM (inactive) | GI50 (HCT-116): > 31.6 µM (inactive) | GI50 (RXF 631): > 100 µM (inactive) | GI50 (SK-MEL-5): > 100 µM (inactive) | GI50 (LXFL 529): > 65.5 µM (inactive) | GI50 (HOP-92): > 100 µM (inactive) | GI50 (U-251): > 83 µM (inactive) | GI50 (Malme-3M): > 100 µM (inactive) | GI50 (SW-620): > 35.3 µM (inactive) | GI50 (786-0): 19.1 µM (inactive) | GI50 (SK-OV-3): > 100 µM (inactive) | GI50 (NCI-H522): > 100 µM (inactive) | GI50 (M14): > 100 µM (inactive) | GI50 (DMS-114): > 52.1 µM (inactive) | GI50 (SNB-78): > 100 µM (inactive) | GI50 (SNB-19): > 100 µM (inactive) | GI50 (NCI-H226): > 100 µM (inactive) | GI50 (KM12): > 100 µM (inactive) | GI50 (NCI-H460): > 61.2 µM (inactive) | GI50 (UACC-62): > 100 µM (inactive) | GI50 (XF498): > 100 µM (inactive) | GI50 (OVCAR-4): > 100 µM (inactive) | GI50 (OVCAR-5): > 100 µM (inactive) | GI50 (HCC 2998): > 100 µM (inactive) | GI50 (COLO 205): > 60.3 µM (inactive) | GI50 (UO-31): > 100 µM (inactive) | GI50 (HT-29): > 100 µM (inactive) | GI50 (SK-MEL-28): > 100 µM (inactive) | GI50 (DLD-1): > 100 µM (inactive) | GI50 (ACHN): > 100 µM (inactive) | GI50 (CCRF-CEM): > 31.6 µM (inactive) | GI50 (IGROV-1): > 100 µM (inactive) | GI50 (A498): > 100 µM (inactive) | GI50 (KM-20L2): > 100 µM (inactive) | GI50 (SF-268): > 100 µM (inactive) | GI50 (RPMI-8226): > 37 µM (inactive) | GI50 (SN12C): > 100 µM (inactive) | GI50 (HCT-15): > 40.3 µM | GI50 (HOP-62): > 100 µM (inactive) | GI50 (DMS-273): 81.7 µM (inactive) | GI50 (NCI-H23): > 100 µM (inactive) | GI50 (LOX IMVI): > 75.5 µM (inactive) | GI50 (OVCAR-8): > 100 µM (inactive) | GI50 (SR): 33.8 µM (inactive) | GI50 (SF-539): > 100 µM (inactive) | GI50 (MOLT-4): > 100 µM (inactive) | GI50 (OVCAR-3): > 43.7 µM (inactive) | GI50 (SK-MEL-2): > 100 µM (inactive) | GI50 (A549): > 100 µM (inactive) | GI50 (TK-10): > 100 µM (inactive) | GI50 (SNB-75): > 100 µM (inactive)
